The source of these data is US12391737B2, “Soluble NPY2 receptor agonists” (Boehringer Ingelheim International GmbH, priority 2020, dated 2025).

Data set [1] deals with T1, Human Neuropeptide Y2 Receptor (Homo sapiens, UniProt P49146).
T1 construct: purchased CHEMICON HTS066M
T1 sequence (P49146 1-381): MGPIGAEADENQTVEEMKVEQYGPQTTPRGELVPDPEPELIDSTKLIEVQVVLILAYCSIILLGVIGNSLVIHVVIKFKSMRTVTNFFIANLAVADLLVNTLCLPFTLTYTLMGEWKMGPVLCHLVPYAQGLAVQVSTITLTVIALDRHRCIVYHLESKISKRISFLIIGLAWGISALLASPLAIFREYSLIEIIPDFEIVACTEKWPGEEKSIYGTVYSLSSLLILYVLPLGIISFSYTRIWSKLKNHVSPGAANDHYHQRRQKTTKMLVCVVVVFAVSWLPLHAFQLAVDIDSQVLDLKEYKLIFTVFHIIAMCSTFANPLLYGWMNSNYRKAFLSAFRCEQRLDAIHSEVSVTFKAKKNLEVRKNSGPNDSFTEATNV
The data set is described as follows: Radioligand binding competition assay (RLB). Particulars: Table 3, 125I-PYY(1-36) competition; read-out: Ki. The protocol:
The filtration RLB assay was carried out in 96-well plates in a final volume of 100 μl per well. Freeze-dried test peptides were dissolved in 100% dimethyl sulfoxide (DMSO) to stock solutions of 1 mM and serial dilutions were performed in assay buffer (50 mM HEPES, 5 mM MgCl2, 1 mM CaCl2, pH 7.4) containing 0.2% ovalbumin. […] Next, 80 μL membranes (HTS066M, ChemiSCREEN™ Human Neuropeptide Y2 Receptor Membrane Preparation, CHEMICON) were added to each well to give a final protein concentration of 0.5 μg/well. The plates were sealed and incubated at room temperature for 2 hours in a plate shaker set at 400 rpm. The incubation was stopped by vacuum filtration onto 0.5% polyethylene amine (PE) presoaked GF/C filters using a 96-well FilterMate™ harvester (Perkin Elmer) followed by four washes with 300 μl/well ice-cold wash buffer (50 mM HEPES, 500 mM NaCl, pH7.4). Filter plates were then dried for 60 min at room temperature and the bottom of the plates was sealed with backing tape UniFilter-96. Finally, 50 μl/well scintillation counter cocktail (Microscint20, Packard) was added and the radioactivity was counted in the Packard TopCount NXT scintillation counter. IC50 values (the half maximal inhibitory concentration of the agonist) were calculated by nonlinear regression analysis of sigmoidal dose-response curves.

Data set [2] can be described thus: Solubility determination. Particulars: for Sol6: pH 6; for Sol7: pH 7. Summed up: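 First, TFA-salt peptide was added to 0.1 M sodium diphosphate (pH 6.4 or 7.0) to 10 mg/ml and shaken 2 h at room temperature. Next, insoluble material was filtered off. Finally, filtrate and control, each 1 mg/ml in 50% acetonitrile, were compared by reversed-phase chromatography.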

Usually Ki stands for the equilibrium dissociation constant of an inhibitor or competing ligand from its target.

*1 amine or outer side, *2 acyl side, *3 side chain or, on linkers, in order; H or OH if unused. Where a SMILES comes first, the peptide text is derived from it. Side-chain parts run from the residue outwards. The star is where a group is joined. C18 diacid = O=C(O)CCCCCCCCCCCCCCCCC(=O)*; γGlu = O=C(O)[C@H](CCC(=O)[*:2])N[*:1]; Isovaleryl = CC(C)CC(=O)*; Ahx = NCCCCCC(=O)O Where only a bound is given, the exact number is not on record here.

For the molecule `CC[C@H](C)[C@H](NC(=O)[C@H](Cc1ccc(O)cc1)NC(=O)[C@H](Cc1ccc(O)cc1)NC(=O)[C@H](CCCNC(=N)N)NC(=O)[C@H](CCC(N)=O)NC(=O)[C@H](CC(C)C)NC(=O)[C@H](CCC(=O)O)NC(=O)[C@H](CCC(=O)O)NC(=O)[C@@H]1CCCN1C(=O)[C@H](CCC(=O)O)NC(=O)[C@H](C)NC(=O)[C@H](CC(=O)O)NC(=O)[C@H](CCC(=O)O)NC(=O)[C@H](CCC(=O)O)NC(=O)[C@@H]1CCCN1C(=O)[C@H](CCCCNC(=O)CCCCCNC(=O)CC[C@H](NC(=O)CCCCCCCCCCCCCCCCC(=O)O)C(=O)O)NC(=O)[C@H](C)NC(=O)[C@@H]1CCCN1C(=O)[C@H](C)NC(=O)CC(C)C)C(=O)N[C@@H](CO)C(=O)N[C@@H](CC(C)C)C(=O)N[C@@H](CCCNC(=N)N)C(=O)N[C@@H](Cc1c[nH]cn1)C(=O)N[C@@H](Cc1ccc(O)cc1)C(=O)N[C@@H](Cc1ccc(O)cc1)C(=O)N[C@@H](CC(N)=O)C(=O)N[C@@H](Cc1c[nH]c2ccccc12)C(=O)N[C@@H](CC(C)C)C(=O)N[C@H](C(=O)N[C@@H](CCCNC(=N)N)C(=O)N[C@@H](CCC(N)=O)C(=O)N[C@@H](CCCNC(=N)N)C(=O)N[C@@H](Cc1ccc(O)cc1)C(N)=O)[C@@H](C)O` [Compound 33, N{alpha-4}-(3-methylbutanoyl)-N{epsilon-7}-(6-[(4S)-4-carboxy-4-(17-carboxyheptadecanamido)butanamido]hexanoyl)[4A,6A,7K,9E,13E,18Q,22I,28Y,30W,31L]-hPYY(4-36)], in data set [1], the Ki was 2.53 nM. Moreover, in data set [2], the “Sol6” value was 7.2 mg/mL and the “Sol7” value was found to be 8.3 mg/mL.

As for `CC[C@H](C)[C@H](NC(=O)[C@H](CCC(=O)O)NC(=O)[C@H](CCC(=O)O)NC(=O)[C@@H]1CCCN1C(=O)[C@H](CCC(=O)O)NC(=O)[C@H](C)NC(=O)[C@H](CC(=O)O)NC(=O)[C@H](CCC(=O)O)NC(=O)[C@H](CCC(=O)O)NC(=O)[C@@H]1CCCN1C(=O)[C@H](CCCCNC(=O)CCCCCNC(=O)CC[C@H](NC(=O)CCCCCCCCCCCCCCCCC(=O)O)C(=O)O)NC(=O)[C@H](CCC(=O)O)NC(=O)[C@@H]1CCCN1C(=O)[C@H](C)NC(=O)CC(C)C)C(=O)N[C@@H](CCC(N)=O)C(=O)N[C@@H](CCCNC(=N)N)C(=O)N[C@@H](Cc1ccc(O)cc1)C(=O)N[C@@H](Cc1ccc(O)cc1)C(=O)N[C@H](C(=O)N[C@@H](CO)C(=O)N[C@@H](CC(C)C)C(=O)N[C@@H](CCCNC(=N)N)C(=O)N[C@@H](Cc1c[nH]cn1)C(=O)N[C@@H](Cc1ccc(O)cc1)C(=O)N[C@@H](Cc1ccc(O)cc1)C(=O)N[C@@H](CC(N)=O)C(=O)N[C@@H](Cc1c[nH]c2ccccc12)C(=O)N[C@@H](CC(C)C)C(=O)N[C@H](C(=O)N[C@@H](CCCNC(=N)N)C(=O)N[C@@H](CCC(N)=O)C(=O)N[C@@H](CCCNC(=N)N)C(=O)N[C@@H](Cc1ccc(O)cc1)C(N)=O)[C@@H](C)O)C(C)C` [Compound 112, N{alpha-4}-(3-methylbutanoyl)-N{epsilon-7}-(6-[(4S)-4-carboxy-4-(17-carboxyheptadecanamido)butanamido]hexanoyl)-[4A,7K,9E,13E,17I,18Q,22V,28Y,30W,31L]-hPYY(4-36)], the Ki in data set [1] amounted to 4.28 nM. In addition, in data set [2], the “Sol6” value is 9.9 mg/mL and the “Sol7” value was determined as 10.0 mg/mL.

As to `CC(C)CC(=O)N[C@@H](C)C(=O)N1CCC[C@H]1C(=O)N[C@@H](CCC(=O)O)C(=O)N[C@@H](CCCCNC(=O)CCCCCNC(=O)CC[C@H](NC(=O)CCCCCCCCCCCCCCCCC(=O)O)C(=O)O)C(=O)N1CCC[C@H]1C(=O)N[C@@H](CCC(=O)O)C(=O)N[C@@H](CCC(=O)O)C(=O)N[C@@H](CC(=O)O)C(=O)N[C@@H](C)C(=O)N[C@@H](CCC(=O)O)C(=O)N1CCC[C@H]1C(=O)N[C@@H](CCC(=O)O)C(=O)N[C@@H](CCC(=O)O)C(=O)N[C@H](C(=O)N[C@@H](CCC(N)=O)C(=O)N[C@@H](CCCNC(=N)N)C(=O)N[C@@H](Cc1ccc(O)cc1)C(=O)N[C@@H](Cc1ccc(O)cc1)C(=O)N[C@H](C(=O)N[C@@H](CO)C(=O)N[C@@H](CC(C)C)C(=O)N[C@@H](CCCNC(=N)N)C(=O)N[C@@H](Cc1c[nH]cn1)C(=O)N[C@@H](Cc1ccc(O)cc1)C(=O)N[C@@H](Cc1ccc(O)cc1)C(=O)N[C@@H](CC(N)=O)C(=O)N[C@@H](Cc1c[nH]c2ccccc12)C(=O)N[C@@H](CC(C)C)C(=O)N[C@H](C(=O)N[C@@H](CCCNC(=N)N)C(=O)N[C@@H](CCC(N)=O)C(=O)N[C@@H](CCCNC(=N)N)C(=O)N[C@@H](Cc1ccc(O)cc1)C(N)=O)[C@@H](C)O)C(C)C)[C@@H](C)O` [Compound 107, N{alpha-4}-(3-methylbutanoyl)-N{epsilon-7}-(6-[(4S)-4-carboxy-4-(17-carboxyheptadecanamido)butanamido]hexanoyl)-[4A,7K,9E,13E,17T,18Q,22V,28Y,30W,31L]-hPYY(4-36)], the Ki in data set [1] was determined as 5.13 nM. For the same molecule, in data set [2], the “Sol6” value was 11.0 mg/mL and the “Sol7” value amounted to 11.0 mg/mL.

On to `CC(C)CC(=O)N[C@@H](C)C(=O)N1CCC[C@H]1C(=O)N[C@@H](CCC(=O)O)C(=O)N[C@@H](CCCCNC(=O)CCCCCNC(=O)CC[C@H](NC(=O)CCCCCCCCCCCCCCCCC(=O)O)C(=O)O)C(=O)N1CCC[C@H]1C(=O)N1CCC[C@H]1C(=O)N[C@@H](C)C(=O)N[C@@H](CC(=O)O)C(=O)N[C@@H](C)C(=O)N[C@H](C(=O)N1CCC[C@H]1C(=O)N[C@@H](CCC(=O)O)C(=O)N[C@@H](CCC(=O)O)C(=O)N[C@@H](CC(C)C)C(=O)N[C@@H](CCC(N)=O)C(=O)N[C@@H](CCCNC(=N)N)C(=O)N[C@@H](Cc1ccc(O)cc1)C(=O)N[C@@H](Cc1ccc(O)cc1)C(=O)N[C@H](C(=O)N[C@@H](CO)C(=O)N[C@@H](CC(C)C)C(=O)N[C@@H](CCCNC(=N)N)C(=O)N[C@@H](Cc1c[nH]cn1)C(=O)N[C@@H](Cc1ccc(O)cc1)C(=O)N[C@@H](Cc1ccc(O)cc1)C(=O)N[C@@H](CC(N)=O)C(=O)N[C@@H](Cc1c[nH]c2ccccc12)C(=O)N[C@@H](CC(C)C)C(=O)N[C@H](C(=O)N[C@@H](CCCNC(=N)N)C(=O)N[C@@H](CCC(N)=O)C(=O)N[C@@H](CCCNC(=N)N)C(=O)N[C@@H](Cc1ccc(O)cc1)C(N)=O)[C@@H](C)O)C(C)C)[C@@H](C)O` [Compound 30, N{alpha-4}-(3-methylbutanoyl)-N{epsilon-7}-(6-[(4S)-4-carboxy-4-(17-carboxyheptadecanamido)butanamido]hexanoyl)[4A,7K,9P,10A,13T,18Q,22V,28Y,30W,31L]-hPYY(4-36)] (Isovaleryl-APEK([Ahx-γGlu-C18 diacid])PPADATPEELQRYYVSLRHYYNWLTRQRY-NH2), for which the Ki in data set [1] is 0.3 nM. In data set [2], the “Sol6” value was 0.1 mg/mL and the “Sol7” value turned out to be 9.4 mg/mL.

For `CC(C)CC(=O)N[C@@H](C)C(=O)N1CCC[C@H]1C(=O)N[C@@H](CCC(=O)O)C(=O)N[C@@H](CCCCNC(=O)CCCCCNC(=O)CC[C@H](NC(=O)CCCCCCCCCCCCCCCCC(=O)O)C(=O)O)C(=O)N1CCC[C@H]1C(=O)N[C@@H](CCC(=O)O)C(=O)N[C@@H](CCC(=O)O)C(=O)N[C@@H](CC(=O)O)C(=O)N[C@@H](C)C(=O)N[C@H](C(=O)N1CCC[C@H]1C(=O)N[C@@H](CCC(=O)O)C(=O)N[C@@H](CCC(=O)O)C(=O)N[C@@H](CC(C)C)C(=O)N[C@@H](CCC(N)=O)C(=O)N[C@@H](CCC(N)=O)C(=O)N[C@@H](Cc1ccc(O)cc1)C(=O)N[C@@H](Cc1ccc(O)cc1)C(=O)N[C@H](C(=O)N[C@@H](CO)C(=O)N[C@@H](CC(C)C)C(=O)N[C@@H](CCCNC(=N)N)C(=O)N[C@@H](Cc1c[nH]cn1)C(=O)N[C@@H](Cc1ccc(O)cc1)C(=O)N[C@@H](Cc1ccc(O)cc1)C(=O)N[C@@H](CC(N)=O)C(=O)N[C@@H](Cc1c[nH]c2ccccc12)C(=O)N[C@@H](CC(C)C)C(=O)N[C@H](C(=O)N[C@@H](CCCNC(=N)N)C(=O)N[C@@H](CCC(N)=O)C(=O)N[C@@H](CCCNC(=N)N)C(=O)N[C@@H](Cc1ccc(O)cc1)C(N)=O)[C@@H](C)O)C(C)C)[C@@H](C)O` [Compound 177, N{alpha-4}-(3-methylbutanoyl)-N{epsilon-7}-(6-[(4S)-4-carboxy-4-(17-carboxyheptadecanamido)butanamido]hexanoyl)-[4A,7K,9E,13T,18Q,19Q,22V,28Y,30W,31L]-hPYY(4-36)], the Ki in data set [1] worked out at 8.65 nM. Also, in data set [2], the “Sol6” value is more than 10.0 mg/mL and the “Sol7” value worked out at 10.0 mg/mL.
